Molecular target: T1, Human complement C1s enzyme (Homo sapiens, UniProt P09871)
T1 construct: purified from human serum, Complement Technology, Inc; purchased Complement Technology, Inc; host or cells: human serum (plasma-derived natural protein)
T1 sequence (P09871 438-688 limits assumed): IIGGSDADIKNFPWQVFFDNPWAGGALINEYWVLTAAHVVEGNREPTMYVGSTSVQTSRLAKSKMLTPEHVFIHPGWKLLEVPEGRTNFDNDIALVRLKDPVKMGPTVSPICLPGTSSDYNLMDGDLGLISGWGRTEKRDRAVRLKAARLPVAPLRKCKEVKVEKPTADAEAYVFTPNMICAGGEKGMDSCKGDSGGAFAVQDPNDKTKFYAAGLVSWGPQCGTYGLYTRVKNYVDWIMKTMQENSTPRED
T1 sequence (P09871 16-437 partner limits assumed): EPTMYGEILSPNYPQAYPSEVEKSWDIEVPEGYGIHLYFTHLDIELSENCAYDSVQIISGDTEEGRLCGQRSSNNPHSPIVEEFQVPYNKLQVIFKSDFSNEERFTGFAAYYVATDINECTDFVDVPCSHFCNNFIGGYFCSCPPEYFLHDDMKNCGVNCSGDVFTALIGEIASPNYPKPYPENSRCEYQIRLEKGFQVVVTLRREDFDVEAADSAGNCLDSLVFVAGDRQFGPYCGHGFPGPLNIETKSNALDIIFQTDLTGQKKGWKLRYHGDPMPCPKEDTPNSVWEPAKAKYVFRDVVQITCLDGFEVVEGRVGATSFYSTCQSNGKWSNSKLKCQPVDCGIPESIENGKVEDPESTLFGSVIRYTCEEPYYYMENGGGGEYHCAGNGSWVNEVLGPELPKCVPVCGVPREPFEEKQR
Test: Human C1s Enzyme Assay
Type: biochemical
Conditions: Table 1; C1s purified from human serum, 1.16 nM; substrate Z-L-Lys-SBzl; read-out: C1s Protease Activity
Method: Example 4. Human C1s Enzyme Assay
Human complement C1s enzyme (purified from human serum, Complement Technology, Inc.) at 1.16 nM final concentration is incubated with test compound at various concentrations for 5 min at room temperature in 50 mM Tris, 1 M NaCl, pH 7.5. A synthetic substrate Z-L-Lys-SBzl and DTNB (Ellman's reagent) are added to final concentrations of 100 μM each. Absorbance at 405 nm (A405) is recorded at 30 second intervals for 30 min using a microplate spectrophotometer. IC50 values are calculated by nonlinear regression of complement C1s reaction rates as a function of test compound concentration.

IC50 [nM] | Structure (SMILES)
100 to 1000 | CO[C@H]1C[C@@H](C(=O)CNC(=O)c2ccc(Oc3ccccc3)cc2)[C@H](C(=O)NCc2cc(C(=N)N)cs2)C1 [Compound 35, N-(2-((1R,2R,4S)-2-(((4-carbamimidoylthiophen-2-yl)methyl)carbamoyl)-4-methoxycyclopentyl)-2-oxoethyl)-4-phenoxybenzamide]
< 100 | C[C@@]12C[C@@H]1N(C(=O)CNC(=O)c1ccc(Oc3ccccc3)cc1)[C@H](C(=O)NCc1cc(C(=N)N)cs1)C2 [Compound 9, (1S,3S,5S)—N-[(4-Carbamimidoylthiophen-2-yl)methyl]-5-methyl-2-{2-[(4-phenoxyphenyl)formamido]acetyl}-2-azabicyclo[3.1.0]hexane-3-carboxamide]
> 1000 | N=C(N)c1cccc(CNC(=O)[C@@H]2CC3(CN2C(=O)CNC(=O)c2ccc(Oc4ccccc4)cc2)OCCO3)c1 [Compound 18, (8S)—N-[(3-Carbamimidoylphenyl)methyl]-7-{2-[(4-phenoxyphenyl)formamido]acetyl}-1,4-dioxa-7-azaspiro[4.4]nonane-8-carboxamide]
100 to 1000 | N=C(N)c1csc(CNC(=O)C2CC3(CC3)CN2C(=O)CNC(=O)c2ccc(Oc3ccccc3)cc2)c1 (stereo not shown) [Compound 10, N-[(4-Carbamimidoylthiophen-2-yl)methyl]-5-{2-[(4-phenoxyphenyl)formamido]acetyl}-5-azaspiro[2.4]heptane-6-carboxamide]
> 1000 | NCCCCCNC(=O)[C@@H]1CC2(CN1C(=O)CNC(=O)c1ccc(Oc3ccccc3)cc1)OCCO2 [Compound 26, (8S)—N-(5-Aminopentyl)-7-{2-[(4-phenoxyphenyl)formamido]acetyl}-1,4-dioxa-7-azaspiro[4.4]nonane-8-carboxamide]
> 1000 | N=C(N)c1csc(CNC(=O)[C@H]2CCCN2C(=O)CNC(=O)c2ccc(Oc3ccccc3)cc2)c1 [Compound 5, (2R)—N-[(4-Carbamimidoylthiophen-2-yl)methyl]-1-{2-[(4-phenoxyphenyl)-formamido]acetyl}pyrrolidine-2-carboxamide]
> 1000 | CO[C@H]1C[C@H](C(=O)CNC(=O)c2ccc(Oc3ccccc3)cc2)[C@H](C(=O)NCc2cc(C(=N)N)cs2)C1 [Compound 34, N-(2-((1S,2R,4S)-2-(((4-carbamimidoylthiophen-2-yl)methyl)carbamoyl)-4-methoxycyclopentyl)-2-oxoethyl)-4-phenoxybenzamide]
< 100 | C=C1C[C@@H](C(=O)NCc2cc(C(=N)N)cs2)N(C(=O)CNC(=O)c2ccc(Oc3ccccc3)cc2)C1 [Compound 6, (2S)—N-[(4-Carbamimidoylthiophen-2-yl)methyl]-4-methylidene-1-{2-[(4-phenoxyphenyl)formamido]acetyl}pyrrolidine-2-carboxamide]
< 100 | C[C@H]1C[C@@H](C(=O)NCc2cc(C(=N)N)cs2)N(C(=O)CNC(=O)c2ccc(Oc3ccccc3)cc2)C1 [Compound 30, (2S,4S)—N-[(4-carbamimidoylthiophen-2-yl)methyl]-4-methyl-1-{2-[(4-phenoxyphenyl)formamido]acetyl}pyrrolidine-2-carboxamide]

Structure (SMILES) | IC50 [nM]
N=C(N)c1csc(CNC(=O)[C@@H]2CSCN2C(=O)CNC(=O)c2ccc(Oc3ccccc3)cc2)c1 [Compound 4, (4R)—N-[(4-Carbamimidoylthiophen-2-yl)methyl]-3-{2-[(4-phenoxyphenyl)formamido]acetyl}-1,3-thiazolidine-4-carboxamide] | < 100

Same assay, conditions: Table 2; C1s purified from human serum, 1.16 nM; substrate Z-L-Lys-SBzl; read-out: C1s Protease Activity

IC50 [nM] | Structure (SMILES)
< 100 | CCCCCOc1ccc(C(=O)NCC(=O)N2CCC[C@H]2C(=O)NCc2cc(C(=N)N)cs2)cc1 [Compound 79, (S)-N-((4-carbamimidoylthiophen-2-yl)methyl)-1-((4-(pentyloxy)benzoyl)glycyl)pyrrolidine-2-carboxamide]
100 to 1000 | N=C(N)c1csc(CNC(=O)[C@@H]2CCCN2C(=O)COCc2ccc(Oc3ccccc3)cc2)c1 [Compound 38, (S)-N-((4-carbamimidoylthiophen-2-yl)methyl)-1-(2-((4-phenoxybenzyl)oxy)acetyl)pyrrolidine-2-carboxamide]
< 100 | Cc1cc(C(=O)NCC(=O)N2CC3(C[C@H]2C(=O)NCc2cc(C(=N)N)cs2)OCCO3)ccc1Oc1ccccc1 [Compound 47, (S)-N-((4-carbamimidoylthiophen-2-yl)methyl)-7-((3-methyl-4-phenoxybenzoyl)glycyl)-1,4-dioxa-7-azaspiro[4.4]nonane-8-carboxamide]
< 100 | N=C(N)c1csc(CNC(=O)[C@@H]2CCCN2C(=O)CNC(=O)CCCCCc2ccccc2)c1 [Compound 81, (S)-N-((4-carbamimidoylthiophen-2-yl)methyl)-1-((6-phenylhexanoyl)glycyl)pyrrolidine-2-carboxamide]
100 to 1000 | Cc1cc(C(=O)NCC(=O)N2CC3(C[C@H]2C(=O)NCc2cc4c(N)nccc4s2)OCCO3)ccc1Oc1ccccc1 [Compound 64, (S)-N-((4-aminothieno[3,2-c]pyridin-2-yl)methyl)-7-((3-methyl-4-phenoxybenzoyl)glycyl)-1,4-dioxa-7-azaspiro[4.4]nonane-8-carboxamide]
< 100 | N/C(=N\O)c1csc(CNC(=O)[C@@H]2CC3(CN2C(=O)CNC(=O)c2ccc(Oc4ccccc4)cc2)OCCO3)c1 [Compound 66, (S,Z)-N-((4-(N′-hydroxycarbamimidoyl)thiophen-2-yl)methyl)-7-((4-phenoxybenzoyl)glycyl)-1,4-dioxa-7-azaspiro[4.4]nonane-8-carboxamide]
< 100 | CCCCCCCCCC(=O)NCC(=O)N1CCC[C@H]1C(=O)NCc1cc(C(=N)N)cs1 [Compound 86, (S)-N-((4-carbamimidoylthiophen-2-yl)methyl)-1-(decanoylglycyl)pyrrolidine-2-carboxamide]
> 1000 | CO[C@@H]1C[C@H](C(=O)CNC(=O)c2ccc(Oc3ccccc3)cc2)[C@@H](C(=O)NCc2cc(C(=N)N)cs2)C1 [Compound 62, N-(2-((1S,2S,4R)-2-(((4-carbamimidoylthiophen-2-yl)methyl)carbamoyl)-4-methoxycyclopentyl)-2-oxoethyl)-4-phenoxybenzamide]
< 100 | CC(C)(c1ccccc1)c1ccc(C(=O)NCC(=O)N2CCC[C@H]2C(=O)NCc2cc(C(=N)N)cs2)cc1 [Compound 57, (S)-N-((4-carbamimidoylthiophen-2-yl)methyl)-1-((4-(2-phenylpropan-2-yl)benzoyl)glycyl)pyrrolidine-2-carboxamide]
< 100 | CCCCCc1ccc(C(=O)NCC(=O)N2CCC[C@H]2C(=O)NCc2cc(C(=N)N)cs2)cc1 [Compound 74, (S)-N-((4-carbamimidoylthiophen-2-yl)methyl)-1-((4-pentylbenzoyl)glycyl)pyrrolidine-2-carboxamide]
> 1000 | C[C@H](OCc1ccccc1)[C@H](OCc1ccccc1)[C@@H](OCc1ccccc1)[C@H](CN(CC(=O)N1CC2(C[C@H]1C(=O)NCc1nc(C(=N)N)cs1)OCCO2)C(=O)OCc1ccccc1)OCc1ccccc1 [Compound 89, benzyl (2-((S)-8-(((4-carbamimidoylthiazol-2-yl)methyl)carbamoyl)-1,4-dioxa-7-azaspiro[4.4]nonan-7-yl)-2-oxoethyl)((2S,3S,4S,5S)-2,3,4,5-tetrakis(benzyloxy)hexyl)carbamate]
< 100 | Cc1cc(C(=O)NCC(=O)N2CC3(C[C@H]2C(=O)NCc2nc(C(=N)N)cs2)OCCO3)ccc1Oc1ccccc1 [Compound 49, (S)-N-((4-carbamimidoylthiazol-2-yl)methyl)-7-((3-methyl-4-phenoxybenzoyl)glycyl)-1,4-dioxa-7-azaspiro[4.4]nonane-8-carboxamide]

Same assay, conditions: Table 3; C1s purified from human serum, 1.16 nM; substrate Z-L-Lys-SBzl; read-out: C1s Protease Activity

IC50 [nM] | Structure (SMILES)
< 100 | C[C@@]12C[C@@H]1N(C(=O)CNC(=O)c1ccc(Oc3ccccc3)cc1)[C@H](C(=O)NCc1ccc(C(=N)N)s1)C2 [Compound 107, (1S,3S,5S)-N-((5-carbamimidoylthiophen-2-yl)methyl)-5-methyl-2-((4-phenoxybenzoyl)glycyl)-2-azabicyclo[3.1.0]hexane-3-carboxamide]
< 100 | N=C(N)c1ccc(CNC(=O)[C@@H]2CC3(CN2C(=O)CNC(=O)c2ccc(Oc4ccccc4)cc2)OCCO3)s1 [Compound 92, (S)-N-((5-carbamimidoylthiophen-2-yl)methyl)-7-((4-phenoxybenzoyl)glycyl)-1,4-dioxa-7-azaspiro[4.4]nonane-8-carboxamide]
< 100 | N=C(N)c1csc(CNC(=O)[C@@H]2C[C@](F)(CF)CN2C(=O)CNC(=O)c2ccc(Oc3ccccc3)cc2)c1 [Compound 106, (2S,4R)-N-((4-carbamimidoylthiophen-2-yl)methyl)-4-fluoro-4-(fluoromethyl)-1-((4-phenoxybenzoyl)glycyl)pyrrolidine-2-carboxamide]
